pKi: −log10 of the molar value. Where two headings read alike, the source gives them in different places. Non-standard residues stand in square brackets, D forms with d. Residues, ends and D or L forms follow the SMILES beside them. ξ: configuration not given here. *: point of attachment. X1 = C=Cc1c(C)c2cc3nc(c4c5[nH]c(cc6nc(cc1[nH]2)C(C)=C6CC)c(C)c5C(=O)C4)[C@@H](CCC(=O)*)[C@H]3C; X2 = O=C(O)CC[C@H](NC(=O)N[C@@H](CCCCNC(=O)CCCCCCC(=O)*)C(=O)O)C(=O)O; ξE = NC(CCC(=O)O)C(=O)O; ξD = NC(CC(=O)O)C(=O)O; ξK = NCCCCC(N)C(=O)O; ξV = CC(C)C(N)C(=O)O; ξS = NC(CO)C(=O)O

Series [1] in a line: Plasma blood clearance (pharmacokinetics) after intravenous injection. Format: in vivo, BALB/c mice. Conditions: for half-life: BALB/c, 20 nmol per animal, 20 nmol intravenous, plasma fluorescence over 48 hours, n=5.
The target in series [2] is T1, PSMA (Homo sapiens, UniProt Q04609).
T1 construct: endogenous in cells; host or cells: LNCaP cell lysate
In words: Fluorescence-based PSMA inhibition assay (NAAG hydrolysis by LNCaP cell lysates, Amplex Red). The class given is biochemical. As to conditions: 4 μM NAAG, Cheng-Prusoff conversion, n=3. The procedure:
Briefly, lysates of LNCaP cells (25 μL in 0.1 M Tris-HCl, pH 8.0) were incubated with the serial dilutions of the test compounds (in 12.5 μL of 0.1 M Tris-HCl, pH 8.0) in the presence of 4 μM N-acetylaspartylglutamate (NAAG) (in 12.5 μL of 0.1 M Tris-HCl, pH 8.0) for 120 minutes. The reaction mixtures were incubated with the working solution (50 μL) of the Amplex Red Glutamic Acid Kit (Molecular Probes Inc., Eugene, Oreg.) for 60 minutes. The amount of glutamate released from NAAG hydrolysis by the LNCaP lysates was determined by measuring the fluorescence generated from the reactions using the Cytation 5 plate reader (BioTek, Winooski, Vt.) with excitation at 545 nm and emission at 590 nm. […] Enzyme inhibitory constants (Ki values) were generated using the Cheng-Prusoff conversion. […] Data analysis was performed using GraphPad Prism software (n=3).
Target sequence in this assay (Q04609 whole entry): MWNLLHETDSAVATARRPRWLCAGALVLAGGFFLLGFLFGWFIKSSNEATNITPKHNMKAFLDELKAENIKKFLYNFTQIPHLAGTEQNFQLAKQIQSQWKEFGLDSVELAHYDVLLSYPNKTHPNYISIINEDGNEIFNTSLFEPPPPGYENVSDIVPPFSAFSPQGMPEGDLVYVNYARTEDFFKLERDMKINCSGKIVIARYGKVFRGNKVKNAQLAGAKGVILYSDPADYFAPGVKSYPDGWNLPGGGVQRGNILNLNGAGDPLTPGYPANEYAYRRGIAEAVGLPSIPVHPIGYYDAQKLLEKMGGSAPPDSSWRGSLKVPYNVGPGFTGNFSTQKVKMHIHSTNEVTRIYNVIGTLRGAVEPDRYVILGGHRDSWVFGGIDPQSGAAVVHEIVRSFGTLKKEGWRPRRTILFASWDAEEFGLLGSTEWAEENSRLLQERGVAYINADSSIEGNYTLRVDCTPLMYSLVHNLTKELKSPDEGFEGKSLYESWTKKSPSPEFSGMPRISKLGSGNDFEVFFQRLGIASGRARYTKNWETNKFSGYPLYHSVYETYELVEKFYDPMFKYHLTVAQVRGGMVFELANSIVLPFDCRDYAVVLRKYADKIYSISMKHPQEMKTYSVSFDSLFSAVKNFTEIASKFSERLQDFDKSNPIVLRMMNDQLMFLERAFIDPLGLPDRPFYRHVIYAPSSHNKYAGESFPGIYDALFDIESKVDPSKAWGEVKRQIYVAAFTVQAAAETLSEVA

Another series has as its system PSMA+ PC3 PIP cells. Format: cell-based. As to conditions: flow cytometry, time-dependent. Background: A flow cytometer gives signals particle by particle.
Another series concerns PSMA+ PC3 PIP tumor. In words: In vivo PSMA inhibition with excess […], ex vivo tumor fluorescence. Also noted: species or system athymic male nude mice. As to conditions: 15 nmol LC-Pyro intravenous, 24 hours post-injection.
Series [3] concerns PSMA+ (PC3-ML-1124) and PSMA− (PC3-ML-1117) metastatic nodules. In words: Fluorescence detection of prostate metastasis. The class given is in vivo, mice. As to conditions: 20 nmol via tail vein, 24 hours post-injection.
For series [4], the system named is PSMA+ PC3 PIP and PSMA− PC3 flu subcutaneous tumors. As to conditions: 20 nmol intravenous; for tumor accumulation, whole-animal in vivo fluorescence imaging: 24 hours post-administration; for ex vivo organ distribution / clearance route: 24 hours, ex vivo fluorescence.
The test system of series [5] is PSMA+ PC3 PIP subcutaneous tumor.
Series [6] has as its target T1, PSMA. In words: biochemical.
Target sequence in this assay (Q04609 whole entry, looked up): as the sequence (Q04609 whole entry) above
For series [7], the system named is PSMA+ PC3 PIP orthotopic prostate tumor. In words: ^64Cu-LC-Pyro PET/CT and gamma-counting biodistribution, PSMA+ orthotopic model. Conditions: PSMA+ PC3 PIP orthotopic tumor mice, 24 hours post-injection, mean ± SD, n=4.
Source text: Organs of interest, including the tumor, prostate, seminal vesicles, testes, heart, spleen, lungs, liver, kidneys, adrenal, stomach, small intestine, large intestine, skin, fat, muscle, bone and brain were excised, washed in saline, dried with absorbent tissue, weighed, and counted on a gamma-counter Wizard® 1480 well-type automatic gamma counter (PerkinElmer Inc.; Shelton, Conn.). Radioactivity measured in each organ was decay-corrected and expressed as the percentage of the injected dose per gram of tissue (% ID/g).
In series [8] the test system is low-risk, localized prostate cancer. Conditions: vascular targeted PDT, cited from earlier work.
[9] abbreviates: LC-Pyro+Laser group, 24 hours post-PDT.

Usually pKi stands for the negative decadic logarithm of the Ki, by convention in mol/L. Low values mean a large Ki, high ones a small Ki. For the compound `C=Cc1c(C)c2cc3nc(c4c5[nH]c(cc6nc(cc1[nH]2)C(C)=C6CC)c(C)c5C(=O)C4)[C@@H](CCC(=O)NCC(=O)NC(CC(=O)O)C(=O)NC(CCC(=O)O)C(=O)NC(C(=O)NC(CC(=O)O)C(=O)NCC(=O)NC(CO)C(=O)NCC(=O)NC(CCCCNC(=O)CCCCCCC(=O)NCCCC[C@H](NC(=O)N[C@@H](CCC(=O)O)C(=O)O)C(=O)O)C(N)=O)C(C)C)[C@H]3C` (some centres unmarked) [LC-Pyro] (X1-G[ξD][ξE][ξV][ξD]G[ξS]G[ξK](X2)-NH2; N-terminus and C-terminus assumed), the “plasma circulation time, fold longer than SC-Pyro (single lysine linker analog)” value in series [1] (BALB/c mice, intravenous) came to 8.5 fold. Also, in [1] (mouse, in vivo, iv, read-out: t1/2, fast (plasma, two-compartment model) (converted)), the half-life is 30 min. In addition, the half-life in [1] (mouse, in vivo, iv, read-out: t1/2, slow (plasma half-life, two-compartment model) (converted)) was 600 min. Moreover, the “Ki inhibitory activity against PSMA” value on PSMA [2] was “sub-nanomolar”. The “selectivity of uptake in PSMA+ PC3 PIP vs PSMA− PC3 flu cells” value in the series on PSMA+ PC3 PIP cells was “nonselective cell-penetrating properties”. Moreover, in the series with PSMA+ PC3 PIP tumor, the “accumulation in excised PSMA+ PC3 PIP tumors with DCIBzL (PSMA blocker) injected 30 minutes beforehand” value is given as “less accumulation”. Also, the “uptake in metastatic nodules, in situ fluorescence imaging” value in series [3] is on record as “selective uptake”. Moreover, in series [4], the “tumor accumulation, whole-animal in vivo fluorescence imaging” value is recorded as “selective accumulation to the PSMA+ after 24 hours”; the “ex vivo organ distribution / clearance route” value is “liver and kidney clearance”. Further, the “therapeutic effect without laser exposure” value in series [5] (LC-Pyro only, 50 nmol intravenous) was “No therapeutic effect”. Moreover, in series [5] (LC-Pyro with no laser treatment, 50 nmol intravenous), the “skin phototoxicity upon daylight exposure” value is recorded as “no sign of skin phototoxicity”. The body weight result in [5] (LC-Pyro+Laser group) is given as “no decrease in body weight”. For the same compound, in series [5] (setting [9]), the “H&E staining of tumor sections” value was “significant damage of tissue architecture” and the “TUNEL staining of tumor sections” value is given as “significant cell death”. Further, the “tumor regrowth after day 22” value in series [5] (LC-Pyro+Laser group, n=4) is “tumor regrowth was observed in two animals”. Also, the “residual or recurrent disease 44 days post-PDT” value in series [5] (LC-Pyro+Laser group, the two remaining animals) was “no signs of residual or recurrent disease”. In [5] (LC-Pyro+Laser: 30 nmol intravenous, 671-nm laser 100 J/cm^2 at 6 hours, single dose, n=4), the tumor growth entry is listed as “significant tumor growth inhibition”. On PSMA [6], this compound had a pKi of 10.06. The “biodistribution, Tumor” value in series [7] came to 9.74 % ID/g.

In the case of `C=Cc1c(C)c2cc3nc(c4c5[nH]c(cc6nc(cc1[nH]2)C(C)=C6CC)c(C)c5C(=O)C4)[C@@H](CCC(=O)N[C@H](CCCCNC(=O)CCCCCCC(=O)NCCCC[C@H](NC(=O)N[C@@H](CCC(=O)O)C(=O)O)C(=O)O)C(N)=O)[C@@H]3C` [SC-Pyro], the “t1/2, slow (plasma half-life, two-compartment model)” value in series [1] (mouse, in vivo, iv) stood at 1.17 h. In addition, the “Ki inhibitory activity against PSMA” value on PSMA [2] is reported as “sub-nanomolar”. Besides, in series [4], the “tumor accumulation, whole-animal in vivo fluorescence imaging” value was “negligible accumulation within both the PSMA− and PSMA+ tumors”; the “ex vivo organ distribution / clearance route” value was “metabolized and collected in the gallbladder”.

In turn, `C=Cc1c(C)c2cc3nc(c4c5[nH]c(cc6nc(cc1[nH]2)C(C)=C6CC)c(C)c5C(=O)C4)[C@@H](CCC(=O)N[C@H](CCCCNC(=O)CCCCCCC(=O)NCCCC[C@H](NC(=O)N[C@@H](CCC(=O)O)C(=O)O)C(=O)O)C(N)=O)[C@H]3C` [SC-Pyro] gave a pKi on PSMA [6] of 9.70.

As for `CC[C@H]1c2cc3[n-]c(c(CC(=O)OC)c4nc(cc5[n-]c(cc(n2)[C@@H]1C)c(C(C)=O)c5C)[C@@H](C)[C@@H]4CCC(=O)[O-])c(C(=O)NCCS(=O)(=O)[O-])c3C.[H+].[H+].[Pd+2]` [padeliporfin], the “patients with disease-free biopsy” value in series [8] (28% with standard-of-care) is listed as 49%. In addition, the “percentage of patients with progressive disease” value in series [8] (58% with standard-of-care) is recorded as 28%.

(Values after patent US20210308286A1 (The Johns Hopkins University, priority 2018, published 2021).)
